Data reported in article PMC5583658, “6,7-dimethoxy-1,2,3,4-tetrahydro-isoquinoline-3-carboxylic acid attenuates heptatocellular carcinoma in rats with NMR-based metabolic perturbations” (Future Science OA, 2017).

How the values were obtained:
Type in all cases: in vivo, albino Wistar rats
[1] = tested on: diethylnitrosamine-induced hepatocarcinogenic rats; assay: ALT and AST in plasma of DEN-induced HCC rats; details: DEN+5-FU 10 mg/kg intraperitoneally, 15 days, mean ± SD, n = 6
Description: (§1) All animals were randomly divided into five groups of six animals each. Drugs were suspended in 0.25% CMC, subjected to 28 days’ treatment orally and divided as follows: Group I: 0.25% CMC (2 ml/kg), Group II: DEN (8 mg/kg, intraperitoneally), Group III: DEN+5-fluorouracil (5-FU, 10 mg/kg, intraperitoneally), Group IV: DEN+M1 (50 mg/kg, orally) and Group V: DEN+M1 (100 mg/kg, orally). The procedure to induce HCC was adopted from a paper by Song et al. where it is shown that DEN produces HCC at 8 mg/kg intraperitoneal injection for 28 days to albino Wistar rats. After initial 1 week of adaptive inhabitation, all rats of group II–V were administered with DEN (8 mg/kg, intraperitoneally) for 28 days. After 28 days, 5-FU and M1 were given for 15 days as mentioned above for group III–V. At the end of the experimental period, animals were sacrificed by cervical decapitation and livers were dissected out immediately, rinsed in ice cold saline and stored at -20°C for further studies. The serum was collected, processed and stored for further analysis.
(§2) Liver function biomarkers like aspartate aminotransferase (AST), alanine aminotransferase (ALT) were also measured in serum using commercially available kit from Ebra Diagonesis Pvt Ltd, Germany. The oxidative parameters like superoxide dismutase (SOD), thiobarbituric acid reactive substances (TBARS), protein carbonyl (PC), SOD [14], tissue catalase (CAT) and glutathione (GSH) levels were estimated in liver tissue in the similar experiment. The total protein content of each sample was measured using the Bradford reagent and bovine serum albumin was used as a standard. Conjugated bilirubin and biliverdin in liver were measured as per the following procedure stated earlier in the literature with slight modifications.

[2] = tested on: diethylnitrosamine-induced hepatocarcinogenic rats; assay: Oxidative stress parameters (SOD, CAT, GSH, PC, MDA) in liver of DEN-induced HCC rats; details: DEN+5-FU 10 mg/kg intraperitoneally, 15 days, mean ± SD, n = 6
Description: as §1, §2

[3] = tested on: diethylnitrosamine-induced hepatocarcinogenic rats; assay: Bilirubin and biliverdin in liver of DEN-induced HCC rats
Description: as §1, §2

[4] = tested on: diethylnitrosamine-induced hepatocarcinogenic rats; assay: Histopathological studies of liver (hematoxylin and eosin); details: DEN+5-FU 10 mg/kg intraperitoneally; 40X
Description: as §1
Histopathological studies were also performed to find out the morphological changes of liver cells after M1 administration. Liver tissues from each group were assessed for their morphological changes using hematoxylin and eosin staining. The tissues were preserved in 10% formalin overnight. […]

[5] = tested on: diethylnitrosamine-induced hepatocarcinogenic rats; assay: 1H-NMR-based serum metabolic profiling; details: rat serum; DEN+5-FU 10 mg/kg intraperitoneally
Description: as §1
All serum samples were thawed at room temperature, 250 μl of serum was taken and mixed with 250 μl of 0.9% saline sodium-phosphate buffer of strength 50 mM, pH 7.4 prepared in D2O. Then, the samples were centrifuged at 10,000 rpm for 5 min to remove any precipitates before acquiring the NMR data. A total 400 μl of the supernatant sample was used in 5 mm NMR tubes (Wilmad Glass, USA) for data acquisition with a co-axial insert containing the known concentration of TSP (sodium salt of 3-trimethylsilyl-(2,2,3,3-d4)-propionic acid) i.e. 0.1% was used as external standard reference to aid metabolite quantification for NMR experiment. Deuterium oxide (D2O; as a co-solvent and to provide a deuterium field/frequency lock) and sodium salt of trimethylsilylpropionic acid-d4 (TSP) used for NMR experiments, were purchased from Sigma-Aldrich (RI, USA).
All NMR spectra were recorded at 298 K on Bruker Biospin Avance-III 800 MHz NMR spectrometer operating at proton frequency of 800.21 MHz, equipped with CryoProbe and an actively shielded gradient unit with a maximum gradient-strength output of […]. The raw NMR data were processed in Topspin-2.1 (Bruker NMR data Processing Software). For each serum sample, one-dimensional ^1H-NMR and diffusion edited ^1H NMR spectra were recorded using the Carr–Purcell–Meiboom–Gill (CPMG) pulse sequence (cpmgpr1d, standard Bruker pulse program) with pre-saturation of the water peak through irradiating it continuously during the recycle delay (RD) of 5 sec, and the bipolar pulse pair longitudinal eddy current delay (BPP-LED) sequence, respectively. Each CPMG spectrum consisted of the accumulation of 128 scans and lasted for approximately 15 minutes. To remove broad signals from triglycerides, proteins, cholesterols and phospholipids, a total spin–spin relaxation time of 60 ms (n = 300 and 2τ=[…]) with a line broadening factor of 0.3 Hz was applied. For diffusion edited (DE)^1H NMR pulse sequence, the square gradients of 70% of the maximum gradient strength (56 G/cm) and 2 ms duration (followed by a delay of 200 μs to allow for the decay of eddy currents) were used. Diffusion time of 120 ms was used to attenuate the signals from low molecular weight compounds without affecting the lipid signals. All the spectra were processed using Topspin-2.1 (Bruker NMR data Processing Software) using standard Fourier Transformation (FT) procedure following manual phase and baseline-correction. Prior to FT, each FID was zero-filled to 4096 data points and a sine-bell apodisation function was applied. After FT, the chemical shifts were referenced internally to methyl peak of L-lactate (at δ=1.33 ppm). All recorded spectra were visually inspected for acceptability and subjected to multivariate statistical analysis to identify the altered metabolic pattern. […]

[6] = DEN+5-FU 10 mg/kg intraperitoneally, 15 days, mean ± SD, n = 6

With `O=c1[nH]cc(F)c(=O)[nH]1` [5-FU, 5-fluorouracil, reference compound] the ALT [1] was 68.36 ± 5.32 U/L, the AST [1] was 61.58 ± 4.17 U/L and the CAT [2] was 9.30 ± 0.35 nM of H2O2/min/μg of protein. The MDA [2] was 46.24 ± 0.26 nM/μg of protein, the PC [2] was 0.35 ± 0.07 μM/μg of protein and the “Reduced GSH” value [2] was 7.30 ± 0.39 μM/μg of protein. For the same compound, the SOD [2] was 6.99 ± 0.43 U/μg of protein, the bilirubin level ([3]; 5-FU-treated rats, text value (toxic ∼60 ng)) was about 35 ng and the Bilirubin [3, 6] was 34.70 ± 2.12 ng/μg of protein. The Biliverdin [3, 6] was 18.39 ± 3.11 ng/μg of protein, the liver histopathology [4] was “less ruptured and denatured cells (RC and DC) than toxic control” and the “Variation with respect to DEN: Acac (chemical shift 2.28)” value [5] was “↑”. For the same compound, the “Variation with respect to DEN: Ace (chemical shift 1.92)” value [5] was “↓”, the “Variation with respect to DEN: Acet (chemical shift 2.23)” value [5] was “↑” and the “Variation with respect to DEN: Ala (chemical shift 1.48)” value [5] was “↓”. For the same compound, the “Variation with respect to DEN: Betaine (chemical shift 3.265)” value [5] was “↓”, the “Variation with respect to DEN: Chol (chemical shift 3.22)” value [5] was “↓” and the “Variation with respect to DEN: Cr (chemical shift 3.03)” value [5] was “↑”. For the same compound, the “Variation with respect to DEN: Glucose (chemical shift 3.23–3.92, 4.63, 5.21)” value [5] was “↓”, the “Variation with respect to DEN: L1 (LDL) (chemical shift 0.83–0.87)” value [5] was “↓” and the “Variation with respect to DEN: L2 (VLDL) (chemical shift 0.87–0.90)” value [5] was “↑”. The “Variation with respect to DEN: L3 (LDL) (chemical shift 1.23–1.27)” value [5] was “↓”, the “Variation with respect to DEN: L4 (VLDL) (chemical shift 1.27–1.30)” value [5] was “↑” and the “Variation with respect to DEN: L6 (chemical shift 2.00)” value [5] was “↓”. The “Variation with respect to DEN: L8 (chemical shift 2.74)” value [5] was “↓”, the “Variation with respect to DEN: L9 (chemical shift 5.28)” value [5] was “↓” and the “Variation with respect to DEN: Lys (chemical shift 1.89)” value [5] was “↓”. The “Variation with respect to DEN: NAG (chemical shift 2.02)” value [5] was “↑”, the “Variation with respect to DEN: OAG (chemical shift 2.13)” value [5] was “↑” and the “Variation with respect to DEN: Pyr (chemical shift 2.37)” value [5] was “↓”. For the same compound, the “Variation with respect to DEN: Tyr (chemical shift 6.89)” value [5] was “↓”.
